target: T1, KRAS G12C (GMPPNP-loaded) and cRAF Ras-binding domain (Homo sapiens, UniProt P01116, C118S/C51S/C80L/G12C); experiment: Inhibition of KRAS G12C and cRAF binding (AlphaScreen); conditions: KRAS G12C preloaded with GTP analogue GMPPNP, 2 hours preincubation
T1 construct: truncated version comprising amino acids 1-169
Method in brief: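 Compounds (10-point, 1:3 from 50 μM; 2% DMSO) were incubated 2 h at room temperature with 0.5 nM GMPPNP-preloaded truncated Cys-light KRAS G12C, then 60-90 min with 0.75 nM GST-RBD of cRAF and AlphaScreen beads. Signal at 570 nm gave IC50 by 4-parameter regression, and a biotin-AviTag-GST counter assay excluded interference with the AlphaScreen readout.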

T1 sequence (P01116 1-169 isoform P01116-2 G12C/C51S/C80L/C118S): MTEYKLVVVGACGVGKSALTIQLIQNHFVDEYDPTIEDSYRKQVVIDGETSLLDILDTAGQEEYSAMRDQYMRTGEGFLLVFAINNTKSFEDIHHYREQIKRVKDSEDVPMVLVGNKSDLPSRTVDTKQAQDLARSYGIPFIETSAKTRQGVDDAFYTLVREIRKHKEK

Row | IC50 [nM] | Structure (SMILES)
1 | < 10 | CN(C)CC#CC(=O)N1CC[C@@H](N(C)c2nc(OC[C@@]34CCCN3C[C@H](F)C4)nc3c(F)c(-c4nc(N)cc5cccc(Cl)c45)ncc23)C1 [Example 38, 1-((R)-3-((7-(3-amino-8-chloroisoquinolin-1-yl)-8-fluoro-2-(((2R,7aS)-2-fluorohexahydro-1H-pyrrolizin-7a-yl)methoxy)pyrido[4,3-d]pyrimidin-4-yl)(methyl)amino)pyrrolidin-1-yl)-4-(dimethylamino)but-2-yn-1-one]
2 | 100 to 500 | C=CC(=O)N1CC[C@@H](N(C)c2nc(OCC34CCCN3CCC4)nc3c(F)c(-c4nc(N)cc5cccc(Cl)c45)ncc23)C1 [Example 69, (R)-1-(3-((7-(3-amino-8-chloroisoquinolin-1-yl)-8-fluoro-2-((hexahydro-1H-pyrrolizin-7a-yl)methoxy)pyrido[4,3-d]pyrimidin-4-yl)(methyl)amino)pyrrolidin-1-yl)prop-2-en-1-one]
3 | ≥ 500 | C=CC(=O)N1CCC(N(C)c2nc(OC[C@@]34CCCN3C[C@H](F)C4)nc3c(F)c(-c4n[nH]c5cccc(Cl)c45)ncc23)C1 (stereo partly shown) [Example 224]
4 | < 10 | Cc1cc(N)nc(-c2ncc3c(N(C)[C@@H]4CCN(C(=O)/C=C/c5nc(C(C)C)no5)C4)nc(OC[C@@]45CCCN4C[C@H](F)C5)nc3c2F)c1C(F)(F)F [Example 71, (E)-1-((R)-3-((7-(6-amino-4-methyl-3-(trifluoromethyl)pyridin-2-yl)-8-fluoro-2-(((2R,7aS)-2-fluorotetrahydro-1H-pyrrolizin-7a(5H)-yl)methoxy)pyrido[4,3-d]pyrimidin-4-yl)(methyl)amino)pyrrolidin-1-yl)-3-(3-isopropyl-1,2,4-oxadiazol-5-yl)prop-2-en-1-one]
5 | < 10 | CN(CC1CN(C(=O)/C=C/c2nc(C(C)(C)O)no2)C1)c1nc(OC[C@@]23CCCN2C[C@H](F)C3)nc2c(F)c(-c3nc(N)cc4cccc(Cl)c34)ncc12 [Example 151]
6 | 10 to 100 | C=CC(=O)N1CC[C@@H](N(C)c2nc(OC[C@@]34CCCN3C[C@H](F)C4)nc3c(F)c(-c4cc(N)nc(C)c4C(F)(F)F)ncc23)C1 [Example 107, 1-((R)-3-((7-(6-amino-2-methyl-3-(trifluoromethyl)pyridin-4-yl)-8-fluoro-2-(((2R,7aS)-2-fluorotetrahydro-1H-pyrrolizin-7a(5H)-yl)methoxy)pyrido[4,3-d]pyrimidin-4-yl)(methyl)amino)pyrrolidin-1-yl)prop-2-en-1-one]
7 | 10 to 100 | Cc1cc(N)nc(-c2ncc3c(N4CCN(C#N)[C@@H](CC#N)C4)nc(OC[C@@]45CCCN4C[C@H](F)C5)nc3c2F)c1C(F)(F)F [Example 13, (S)-4-(7-(6-amino-4-methyl-3-(trifluoromethyl)pyridin-2-yl)-8-fluoro-2-(((2R,7aS)-2-fluorohexahydro-1H-pyrrolizin-7a-yl)methoxy)pyrido[4,3-d]pyrimidin-4-yl)-2-(cyanomethyl)piperazine-1-carbonitrile]
8 | ≥ 500 | C=CC(=O)N1CC[C@@H](N(C)c2nc(OC[C@@]34CCCN3C[C@H](F)C4)nc3c(F)c(-c4cccn5nccc45)ncc23)C1 [Example 234]
9 | 100 to 500 | Cc1cc(N)nc(-c2ncc3c(N(C)CC4CN(C(=O)/C=C/c5nc(C(C)C)no5)C4)nc(OC[C@@]45CCCN4C[C@H](F)C5)nc3c2F)c1C1CC1 [Example 175]
10 | ≥ 500 | C=CC(=O)N1CC[C@@H](N(C)c2nc(OC[C@@]34CCCN3C[C@H](F)C4)nc3c(F)c(-c4nc(N)ccc4F)ncc23)C1 [Example 96, 1-((R)-3-((7-(6-amino-3-fluoropyridin-2-yl)-8-fluoro-2-(((2R,7aS)-2-fluorotetrahydro-1H-pyrrolizin-7a(5H)-yl)methoxy)pyrido[4,3-d]pyrimidin-4-yl)(methyl)amino)pyrrolidin-1-yl)prop-2-en-1-one]
11 | 10 to 100 | CN(c1nc(OC[C@@]23CCCN2C[C@H](F)C3)nc2c(F)c(-c3cccc(Cl)c3C3CC3)ncc12)[C@@H]1CCN(C(=O)/C=C/CN2CC[C@@H](F)C2)C1 [Example 262]
12 | 100 to 500 | C=CC(=O)N1CC(CN(C)c2nc(OC[C@@]34CCCN3C[C@H](F)C4)nc3c(F)c(-c4nc(N)ccc4C(F)(F)F)ncc23)C1 [Example 54, 1-(3-(((7-(6-amino-3-(trifluoromethyl)pyridin-2-yl)-8-fluoro-2-(((2R,7aS)-2-fluorohexahydro-1H-pyrrolizin-7a-yl)methoxy)pyrido[4,3-d]pyrimidin-4-yl)(methyl)amino)methyl)azetidin-1-yl)prop-2-en-1-one]
13 | < 10 | Cc1cc(N)nc(-c2ncc3c(N(C)[C@@H]4CCN(C(=O)/C=C/[C@H]5CCN5C)C4)nc(OC[C@@]45CCCN4C[C@H](F)C5)nc3c2F)c1C(F)(F)F (single isomer, unassigned) [Example 26]
14 | 100 to 500 | Cc1cc(N)nc(-c2ncc3c(N(C)[C@@H]4CCN(C(=O)/C=C/CN5CCOCC5)C4)nc(OC[C@@]45CCCN4C[C@H](F)C5)nc3c2F)c1C(F)(F)F [Example 120]
15 | ≥ 500 | C=CC(=O)N1CC(CN(C)c2nc(OC[C@@]34CCCN3C[C@H](F)C4)nc3c(F)c(-c4nc(N)cc(C)c4C)ncc23)C1 [Example 146, 1-(3-(((7-(6-amino-3,4-dimethylpyridin-2-yl)-8-fluoro-2-(((2R,7aS)-2-fluorotetrahydro-1H-pyrrolizin-7a(5H)-yl)methoxy)pyrido[4,3-d]pyrimidin-4-yl)(methyl)amino)methyl)azetidin-1-yl)prop-2-en-1-one]
16 | ≥ 500 | C=CC(=O)N1CC(CN(C)c2nc(OC[C@@]34CCCN3C[C@H](F)C4)nc3c(F)c(-c4nc(N)cc5cccc(F)c45)ncc23)C1 [Example 128, 1-(3-(((7-(3-amino-8-fluoroisoquinolin-1-yl)-8-fluoro-2-(((2R,7aS)-2-fluorotetrahydro-1H-pyrrolizin-7a(5H)-yl)methoxy)pyrido[4,3-d]pyrimidin-4-yl)(methyl)amino)methyl)azetidin-1-yl)prop-2-en-1-one]

Row | IC50 [nM] | Structure (SMILES)
17 | 10 to 100 | CN(c1nc(OC[C@@]23CCCN2C[C@H](F)C3)nc2c(F)c(-c3cccc(Cl)c3C3CC3)ncc12)[C@@H]1CCN(C(=O)/C=C/CN2C[C@H]3C[C@@H]2CO3)C1 [Example 245]
18 | < 10 | Cc1cc(N)nc(-c2ncc3c(N(C)CC4CN(C(=O)/C=C/c5nc(C6CC6)no5)C4)nc(OC[C@@]45CCCN4C[C@H](F)C5)nc3c2F)c1C(F)(F)F [Example 176]
19 | ≥ 500 | C=CC(=O)N1CC[C@@H](N(C)c2nc(OC[C@@]34CCCN3C[C@H](F)C4)nc3c(F)c(-c4nc(N)ccc4C4CC4)ncc23)C1 [Example 166, 1-((R)-3-((7-(6-amino-3-cyclopropylpyridin-2-yl)-8-fluoro-2-(((2R,7aS)-2-fluorotetrahydro-1H-pyrrolizin-7a(5H)-yl)methoxy)pyrido[4,3-d]pyrimidin-4-yl)(methyl)amino)pyrrolidin-1-yl)prop-2-en-1-one]
20 | 100 to 500 | C=CC(=O)N1CC[C@@H](N(C)c2nc(OC[C@@]34CCCN3C[C@H](F)C4)nc3c(F)c(-c4cc(O)cc5nccnc45)ncc23)C1 [Example 192]
21 | ≥ 500 | Cc1cc(N)nc(N2CCc3c(nc(OC[C@@]45CCCN4C[C@H](F)C5)nc3N(C)[C@@H]3CCN(C(=O)/C=C/c4nc(C(C)C)no4)C3)C2)c1C(F)(F)F [Example 147, (E)-1-((R)-3-((7-(6-amino-4-methyl-3-(trifluoromethyl)pyridin-2-yl)-2-(((2R,7aS)-2-fluorotetrahydro-1H-pyrrolizin-7a(5H)-yl)methoxy)-5,6,7,8-tetrahydropyrido[3,4-d]pyrimidin-4-yl)(methyl)amino)pyrrolidin-1-yl)-3-(3-isopropyl-1,2,4-oxadiazol-5-yl)prop-2-en-1-one]
22 | 10 to 100 | C=CC(=O)N1CC[C@@H](N(C)c2nc(OC[C@@]34CCCN3C[C@H](F)C4)nc3c(F)c(-c4cccc(Cl)c4C(F)(F)F)ncc23)[C@H]1C [Example 217]
23 | 10 to 100 | CN(c1nc(OC[C@@]23CCCN2C[C@H](F)C3)nc2c(F)c(-c3cccc(Cl)c3C3CC3)ncc12)[C@@H]1CCN(C(=O)C#C[C@]2(C)CCCN2C)C1 [Example 208]
24 | ≥ 500 | C=CC(=O)N1CC[C@@H](N(C)c2nc(OC[C@@]34CCCN3C[C@H](F)C4)nc3c(F)c(-c4c(C)cc(F)c5[nH]ncc45)ncc23)C1 [Example 232]
25 | ≥ 500 | C=CC(=O)N1CC[C@@H](N(C)c2nc(OC[C@@]34CCCN3C[C@H](F)C4)nc3c(F)c(-c4cnn5cccc(F)c45)ncc23)C1 [Example 212]
26 | 10 to 100 | CN(c1nc(OC[C@@]23CCCN2C[C@H](F)C3)nc2c(F)c(-c3cccc(Cl)c3C3CC3)ncc12)[C@@H]1CCN(C(=O)C#C[C@@]2(C)CCCN2C)C1 [Example 235]
27 | ≥ 500 | Cc1nsc(/C=C/C(=O)N2CC(CN(C)c3nc(OC[C@@]45CCCN4C[C@H](F)C5)nc4c3C[C@H](C)[C@@H](c3nc(N)cc(C)c3C(F)(F)F)C4)C2)n1 (single isomer, unassigned) [Example 174]
28 | ≥ 500 | C=CC(=O)N1CC[C@@H](N(C)c2nc(OC[C@@]34CCCN3C[C@H](F)C4)nc3c(F)c(-c4cccn5cncc45)ncc23)C1 [Example 219]
29 | 100 to 500 | Cc1cc(N)nc(-c2ncc3c(N(C)CC4CN(C(=O)/C=C/CN5CCOCC5)C4)nc(OC[C@@]45CCCN4C[C@H](F)C5)nc3c2F)c1C(F)(F)F [Example 129]
30 | ≥ 500 | C=CC(=O)N1CC[C@@H](N(C)c2nc(OC[C@@]34CCCN3C[C@H](F)C4)nc3c(F)c(-c4ccccc4OC(F)F)ncc23)C1 [Example 182]
31 | 10 to 100 | C=CC(=O)N1CC[C@@H](N(C)c2nc(OC[C@@]34CCCN3C[C@H](F)C4)nc3c(F)c(-c4c(Cl)c(C)cc5[nH]ncc45)ncc23)C1 [Example 194]

Reference: patent US20260256789A1, “METHODS FOR TREATMENT OF CANCER” (Frontier Medicines Corporation, priority 2022, published 2026)
